Experimental findings from ChEMBL document CHEMBL1149467, “From genome to drug lead: identification of a small-molecule inhibitor of the SARS virus” (Bioorg Med Chem Lett, 2006) are described below.

Assay [1] relates to SARS-CoV. Description: Inhibition of human SARS-CoV Toronto-2 in a cell based assay. The class given is functional, organism-based. The conditions noted are these: Severe acute respiratory syndrome-related coronavirus.
Assay [2] concerns SARS-CoV. Description: Inhibition of human SARS-CoV Toronto-2 at 300 uM in a cell based assay. The conditions noted are these: Severe acute respiratory syndrome-related coronavirus. The class given is functional.

`O=C(O)c1ccc(/N=C/c2c(O)ccc3oc4c(c23)CCCC4)cc1` had an EC50 in assay [1] of 23 µM.

In turn, `O=C(O)c1ccc(NC(=O)c2cccc3c2C2=C(CCCC2)C3=O)cc1` gave an inhibition at 300 µM in assay [2] of 25%.
